Like-named read-outs stand apart in the source and are kept apart here.
Assays:
[1] = system: Mycosphaerella graminicola; Anamorph: Septoria tritici; test: Leaf Blotch of Wheat (SEPTTR) disease control; assay type: in vivo; details: Zymoseptoria tritici; for pest or weed control at 100 ppm: rate 100 ppm; for pest or weed control at 121.5 g/ha: rate 121.5 g/H
Summary of the method: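 Wheat seedlings (Yuma, first leaf emerged) sprayed to run-off with compound in acetone/water with 110 ppm Triton X-100, or track-sprayed as EC with 0.1% Trycol 5941. Septoria tritici spores inoculated before or after treatment. Dew chambers, then 20 °C greenhouse. Percent disease control derived from severity (0–100%) relative to untreated plants.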

[2] = system: Puccinia triticina; Synonym: Puccinia recondite f. Sp. Tritici; test: Wheat Brown Rust (PUCCRT) disease control; assay type: in vivo; details: Puccinia triticina, topical; for pest or weed control at 100 ppm: rate 100 ppm; for pest or weed control at 121.5 g/ha: rate 121.5 g/H
Summary of the method: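 Brown rust on first-leaf Yuma wheat: spore inoculation before or after spray application (acetone/Triton X-100 solution, or EC with Trycol in track spray), overnight 100% RH at 22 °C, disease developed at 24 °C. Severity scored 0–100% and converted to percent control against untreated.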

[3] = 24 h, 1 Day Protectant, read-out: SEPTTR 1 DP disease control
[4] = 24 h, 1 Day Protectant, read-out: PUCCRT 1 DP disease control
[5] = 72 h, 3 Day Curative, read-out: PUCCRT 3 DC disease control
[6] = 72 h, 3 Day Curative, read-out: SEPTTR 3 DC disease control

| Structure (SMILES) | pest or weed control at 100 ppm [1, 3] [%] | pest or weed control at 100 ppm [2, 4] [%] | pest or weed control at 100 ppm [2, 5] [%] | pest or weed control at 121.5 g/ha [1, 3] [%] | pest or weed control at 100 ppm [1, 6] [%] | pest or weed control at 121.5 g/ha [1, 6] [%] | pest or weed control at 121.5 g/ha [2, 4] [%] | pest or weed control at 121.5 g/ha [2, 5] [%] |
| --- | --- | --- | --- | --- | --- | --- | --- | --- |
| COc1ccnc(C(=O)N[C@H]2CCC[C@H](C)[C@@H](Oc3ccccc3)[C@H](C)OC2=O)c1O [Compound F38] | 80 to 100 | 80 to 100 | 80 to 100 |  |  |  |  |  |
| COc1ccnc(C(=O)N[C@H]2CCC[C@H](CCC(C)C)[C@@H](Oc3ccccc3)[C@H](C)OC2=O)c1OCOC(C)=O [Compound F89] | 80 to 100 | 80 to 100 | 80 to 100 | 80 to 100 | 80 to 100 | 80 to 100 | 80 to 100 | 0 to 80 |
| COc1ccnc(C(=O)N[C@H]2CCC[C@H](Cc3ccco3)[C@@H](OCC(C)C)[C@H](C)OC2=O)c1O [Compound F34] | 80 to 100 | 80 to 100 | 80 to 100 |  | 80 to 100 |  |  |  |
| CCCO[C@@H]1[C@@H](Cc2ccc(F)cc2)CCC[C@H](NC(=O)c2nccc(OC)c2O)C(=O)O[C@H]1C [Compound F13] | 80 to 100 |  | 0 to 80 |  | 80 to 100 |  |  |  |
| COc1ccnc(C(=O)N[C@H]2CCC[C@H](CC3CCCC3)[C@@H](OC(=O)C(C)C)[C@H](C)OC2=O)c1O [Compound F35] | 80 to 100 | 0 to 80 |  |  |  |  |  |  |
| C=C[C@H]1CCC[C@H](NC(=O)c2nccc(OC)c2O)C(=O)O[C@@H](C)[C@@H]1Oc1ccccc1 [Compound F61] | 80 to 100 | 80 to 100 | 0 to 80 |  |  |  |  |  |
| CCCO[C@@H]1[C@@H](CC2CCCC2)CCC[C@H](NC(=O)c2nccc(OC)c2O)C(=O)O[C@H]1C [Compound F36] | 80 to 100 | 80 to 100 |  |  |  |  |  |  |
| COc1ccnc(C(=O)N[C@H]2CCC[C@H](Cc3ccc(F)cc3)[C@@H](OC(=O)C(C)C)[C@H](C)OC2=O)c1O [Compound F17] | 80 to 100 | 80 to 100 | 0 to 80 |  | 80 to 100 |  |  |  |
| COCC[C@H]1CCC[C@H](NC(=O)c2nccc(OC)c2O)C(=O)O[C@@H](C)[C@@H]1OCC(C)C [Compound F47] | 80 to 100 | 80 to 100 | 80 to 100 |  | 80 to 100 |  |  |  |
| COc1ccnc(C(=O)N[C@H]2CCC[C@H](Cc3ccccc3)[C@@H](O)[C@H](C)OC2=O)c1O [Compound F40] | 0 to 80 | 80 to 100 | 0 to 80 |  | 0 to 80 |  |  |  |
| COc1ccnc(C(=O)N[C@H]2CCC[C@H](CC3CCCC3)[C@@H](Oc3ccccc3)[C@H](C)OC2=O)c1OCOC(C)=O [Compound F115] | 80 to 100 | 80 to 100 | 80 to 100 | 80 to 100 | 80 to 100 | 80 to 100 | 80 to 100 | 0 to 80 |
| CCOCC(=O)OCOc1c(OC)ccnc1C(=O)N[C@H]1CCC[C@H](Cc2ccc(F)cc2)[C@@H](OC(=O)C2CCCC2)[C@H](C)OC1=O [Compound F170] | 80 to 100 | 80 to 100 | 80 to 100 | 80 to 100 | 80 to 100 | 80 to 100 | 80 to 100 | 0 to 80 |
| COc1ccnc(C(=O)N[C@H]2CCC[C@H](CCC(C)C)[C@@H](OCC(C)C)[C@H](C)OC2=O)c1OCOC(C)=O [Compound F90] | 80 to 100 | 80 to 100 | 80 to 100 | 80 to 100 | 80 to 100 | 80 to 100 | 80 to 100 | 80 to 100 |
| COc1ccnc(C(=O)N[C@H]2CCC[C@H](CC3CCCC3)[C@@H](OCC(C)C)[C@H](C)OC2=O)c1OCOC(C)=O [Compound F123] | 80 to 100 | 80 to 100 | 80 to 100 | 80 to 100 | 80 to 100 | 80 to 100 | 80 to 100 | 0 to 80 |
